In one assay the test system is Pseudomonas aeruginosa. The assay is described as follows: Bactericidal assay, Pseudomonas strain from a cystic fibrosis patient, with TAP, NaCl and CuSO4. Type of assay: cell-based. As to the method: Bovine TAP of 38 amino acids was chemically synthesized by the method of Duclohier ((1989) Biophys. J. 5:1017-1021), and purified to a single peak by HPLC. Bactericidal assay was carried out by growing a wild-type Pseudomonas strain obtained from a cystic fibrosis patient in TSB until the OD600 reached 0.2. Cells were then diluted in 50 μl 10 mM NaPO4 buffer, pH 7.4, to 4×10^5 cells/ml. […] TAP, varying concentrations of NaCl, and 0.1 mM CuS04 were added, and the mixtures were incubated for 30 minutes at 37° C. Five μl samples were taken and plated on L-agar, and the plates were incubated at 37° C. overnight. Colonies were then counted.

A further assay deals with E. coli. As to the kind of experiment: Bactericidal assay, E. coli colony count after 30 min incubation with peptide and CuSO4. Type of assay: cell-based. As to the method:
Bovine TAP was synthesized and purified to a single HPLC peak. Bactericidal assay was carried out by growing wild-type E. coli in tryptic soy broth (TSB) until the OD600 reached 0.2. Cells were then diluted in 50 μl 10 mM NaPO4 buffer, pH 7.4, to 4×10^5 cells/ml. […] Five Al samples were plated on L-agar, and the plates were incubated at 37° C. overnight. Colonies were then counted.

Setting [1] is: NaCl 0 mM, TAP 0 μg/ml, CU 0 mM as printed (second such line).
Where [2] appears, read: NaCl 15 mM, TAP 0 μg/ml, CU 0.1 mM.
The mark [3] stands for this setting: NaCl 25 mM, TAP 0 μg/ml, CU 0.1 mM.
Setting [4] is: NaCl 50 mM, TAP 0 μg/ml, CU 0.1 mM.
Where [5] appears, read: NaCl 75 mM, TAP 0 μg/ml, CU 0.1 mM.
Where [6] appears, read: NaCl 15 mM, TAP 10 μg/ml, CU 0.1 mM.
Setting [7] is: NaCl 25 mM, TAP 10 μg/ml, CU 0.1 mM.
The mark [8] stands for this setting: NaCl 50 mM, TAP 10 μg/ml, CU 0.1 mM.
[9] abbreviates: NaCl 75 mM, TAP 10 μg/ml, CU 0.1 mM.
Where [10] appears, read: peptide 10 ug/ml, CuSO4 0 mM, 30 min 37 C.
[11] abbreviates: peptide 10 ug/ml, CuSO4 0.01 mM, 30 min 37 C.
Setting [12] is: peptide 10 ug/ml, CuSO4 0.1 mM, 30 min 37 C.

Regarding `O=S(=O)([O-])[O-].[Cu+2]` [CuSO4, copper sulfate (cupric sulfate)], the “# COLONIES” value with Pseudomonas aeruginosa (setting [1]) is recorded as 534; with Pseudomonas aeruginosa (setting [2]) it was 580; with Pseudomonas aeruginosa (setting [3]), 513; in the assay on Pseudomonas aeruginosa (setting [4]), 696; with Pseudomonas aeruginosa (setting [5]), 796; with E. coli (No Peptides, CuSO4 0.01 mM) it was 1776. In addition, the “# COLONIES” value in the assay on E. coli (No Peptides, CuSO4 0.1 mM) amounted to 640; with E. coli (No Peptides, CuSO4 1 mM), 443; in the assay on E. coli (No Peptides, CuSO4 10 mM) it was 211. Moreover, the “% SURVIVAL” value in the assay with Pseudomonas aeruginosa (setting [1]) is listed as 35%; in the assay with Pseudomonas aeruginosa (setting [2]), 39%; in the assay with Pseudomonas aeruginosa (setting [3]), 34%; in the assay with Pseudomonas aeruginosa (setting [4]), 46%; with Pseudomonas aeruginosa (setting [5]) it was 53%; with E. coli (No Peptide, CuSO4 0.01 mM) it was 62%. The “% SURVIVAL” value in the assay with E. coli (No Peptide, CuSO4 0.1 mM) was found to be 22%; in the assay with E. coli (No Peptide, CuSO4 1 mM) it was 16%; in the assay on E. coli (No Peptide, CuSO4 10 mM), 7%.
As for “Tracheal Antimicrobial Peptide (NPVSCVRNKGICVPIRCPGSMKQIGTCVGRAVKCCRKK; UniProt P25068 27-64, looked up) [TAP, airway beta-defensin; bovine TAP of 38 amino acids, chemically synthesized and purified to a single HPLC peak]”, the “# COLONIES” value came out at 233 in the assay on Pseudomonas aeruginosa (setting [6]); 89 in the assay on Pseudomonas aeruginosa (setting [7]); 242 in the assay with Pseudomonas aeruginosa (setting [8]); 363 with Pseudomonas aeruginosa (setting [9]); 119 in the assay with E. coli (peptide 10 ug/ml, Cu 0 mM); 106 in the assay with E. coli (peptide 10 ug/ml, Cu 0.01 mM). The “# COLONIES” value with E. coli (peptide 10 ug/ml, Cu 0.1 mM) is 32. The “% SURVIVAL” value in the assay on Pseudomonas aeruginosa (setting [6]) is given as 15%; in the assay on Pseudomonas aeruginosa (setting [7]), 6%; with Pseudomonas aeruginosa (setting [8]), 16%; with Pseudomonas aeruginosa (setting [9]) it was 24%; in the assay on E. coli (TAP 1 ug/ml, CuSO4 0 mM), 40%; in the assay on E. coli (TAP 1 ug/ml, CuSO4 0.01 mM), 8%. Moreover, the “% SURVIVAL” value is recorded as 2% in the assay with E. coli (TAP 1 ug/ml, CuSO4 0.1 mM); 9% in the assay with E. coli (setting [10]); 8% in the assay with E. coli (setting [11]); 2% with E. coli (setting [12]). Besides, the “killing of Pseudomonas by the combination of copper ions and TAP versus TAP alone” value with Pseudomonas aeruginosa (copper 0.1 mM, increasing NaCl concentrations) is “more effective than TAP alone”.
On to magainin, for which the “effect of CuSO4 on the antimicrobial activity of the peptide” value with E. coli (0.01 to 0.1 mM CuS04) is reported as “enhanced the antimicrobial activity”. The “# COLONIES” value was determined as 1895 in the assay with E. coli (peptide 10 ug/ml, Cu 0 mM); 1654 in the assay with E. coli (peptide 10 ug/ml, Cu 0.01 mM); 975 in the assay on E. coli (peptide 10 ug/ml, Cu 0.1 mM). Besides, the results for the “% SURVIVAL” value in the assay with E. coli (setting [10]), in the assay on E. coli (setting [11]) and in the assay with E. coli (setting [12]) were 80%, 70% and 41%, respectively.

(Values after US6042848A, “Enhancement of antimicrobial peptide activity by metal ions” (The Board of Trustees of Southern Illinois University, priority 1997, dated 2000).)
